From ChEMBL document CHEMBL5154644, “Design, Synthesis, and Structure-Activity Relationship Optimization of Pyrazolopyrimidine Amide Inhibitors of Phosphoinositide 3-Kinase γ (PI3Kγ)” (J Med Chem, 2022)

Target: T1, Phosphatidylinositol 4,5-bisphosphate 3-kinase catalytic subunit gamma isoform (Homo sapiens, UniProt P48736)
Assay: Inhibition of PI3Kgamma (unknown origin) in […] stimulated human THP-1 cells assessed as reduction in Akt phosphorylation level at Ser473 residue preincubated for 60 mins followed by rhMCP-1 stimulation and measured after 2 mins by AlphaLisa assay
Format: cell-based
Settings: not given

T1 sequence (P48736 whole entry, canonical isoform): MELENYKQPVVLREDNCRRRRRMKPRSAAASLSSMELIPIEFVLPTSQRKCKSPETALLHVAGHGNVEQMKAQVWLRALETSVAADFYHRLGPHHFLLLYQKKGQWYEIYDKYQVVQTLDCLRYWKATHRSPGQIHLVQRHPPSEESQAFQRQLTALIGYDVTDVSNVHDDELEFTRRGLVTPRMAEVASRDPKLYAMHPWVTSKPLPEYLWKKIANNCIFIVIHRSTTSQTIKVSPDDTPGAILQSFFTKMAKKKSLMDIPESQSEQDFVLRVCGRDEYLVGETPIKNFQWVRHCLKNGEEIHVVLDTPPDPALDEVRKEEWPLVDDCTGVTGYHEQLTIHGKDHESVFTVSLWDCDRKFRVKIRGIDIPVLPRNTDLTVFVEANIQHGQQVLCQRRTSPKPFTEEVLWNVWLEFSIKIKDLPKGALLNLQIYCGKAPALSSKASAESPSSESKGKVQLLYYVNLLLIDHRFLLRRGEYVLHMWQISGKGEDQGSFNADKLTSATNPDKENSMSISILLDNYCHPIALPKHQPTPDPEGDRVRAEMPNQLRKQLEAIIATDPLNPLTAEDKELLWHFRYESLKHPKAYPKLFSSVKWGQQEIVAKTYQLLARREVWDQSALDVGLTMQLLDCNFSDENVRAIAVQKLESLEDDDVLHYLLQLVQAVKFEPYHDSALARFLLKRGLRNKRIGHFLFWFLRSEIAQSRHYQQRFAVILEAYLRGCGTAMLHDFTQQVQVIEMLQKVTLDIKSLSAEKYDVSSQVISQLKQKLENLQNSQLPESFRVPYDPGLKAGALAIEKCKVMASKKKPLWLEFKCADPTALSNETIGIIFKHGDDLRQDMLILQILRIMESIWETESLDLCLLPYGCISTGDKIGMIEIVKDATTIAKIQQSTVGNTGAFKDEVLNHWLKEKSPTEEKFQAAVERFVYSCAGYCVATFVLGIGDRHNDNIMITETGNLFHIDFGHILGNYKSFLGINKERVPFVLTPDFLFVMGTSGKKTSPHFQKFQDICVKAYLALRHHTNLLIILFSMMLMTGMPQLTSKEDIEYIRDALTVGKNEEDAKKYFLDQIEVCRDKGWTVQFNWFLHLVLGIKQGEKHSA

Structure (SMILES) | IC50
C[C@@H](C1CC1)N1Cc2cc(-c3ccn4nc(N)c(C(=O)NC5CC5)c4n3)cc(C3CC3)c2C1=O | 66 nM
C[C@@H](C1CC1)N1Cc2cc(-c3ccn4nc(N)c(C(=O)NC5CC5)c4n3)cc(S(=O)(=O)C3CCC3)c2C1=O | 50 nM
C[C@@H](C1CC1)N1Cc2cc(-c3ccn4nc(N)c(C(=O)NC5CC5)c4n3)cc(Cl)c2C1=O | 103 nM

More lines, in order of falling IC50, values ahead:

IC50 | Structure (SMILES)
338 nM | CCN1Cc2cc(-c3ccn4nc(N)c(C(=O)NC5CC5)c4n3)cc(C)c2C1=O
32 nM | CNS(=O)(=O)c1cc(-c2ccn3nc(N)c(C(=O)N[C@H]4CC[C@](C)(O)CC4)c3n2)cc2c1C(=O)N([C@@H](C)C(F)(F)F)C2
16 nM | C[C@H](N1Cc2cc(-c3ccn4nc(N)c(C(=O)NC5CC5)c4n3)cc(NS(C)(=O)=O)c2C1=O)C(F)(F)F

Target: T1, Phosphatidylinositol 4,5-bisphosphate 3-kinase catalytic subunit gamma isoform
Assay: Inhibition of PI3Kgamma (unknown origin) using PIP2 as substrate preincubated for 1 hr followed by substrate addition and measured after 60 mins in presence of ATP by ADP-glo assay
Settings: not given

Structure (SMILES) | IC50
C[C@@H](C1CC1)N1Cc2cc(-c3ccn4nc(N)c(C(=O)NC5CC5)c4n3)cc(C3CC3)c2C1=O | 4.7 nM
C[C@@H](C1CC1)N1Cc2cc(-c3ccn4nc(N)c(C(=O)NC5CC5)c4n3)cc(S(=O)(=O)C3CCC3)c2C1=O | 3 nM
C[C@@H](C1CC1)N1Cc2cc(-c3ccn4nc(N)c(C(=O)NC5CC5)c4n3)cc(Cl)c2C1=O | 2.4 nM

Continued, values first:

IC50 | Structure (SMILES)
5.6 nM | CCN1Cc2cc(-c3ccn4nc(N)c(C(=O)NC5CC5)c4n3)cc(C)c2C1=O
0.9 nM | CNS(=O)(=O)c1cc(-c2ccn3nc(N)c(C(=O)N[C@H]4CC[C@](C)(O)CC4)c3n2)cc2c1C(=O)N([C@@H](C)C(F)(F)F)C2
0.8 nM | C[C@H](N1Cc2cc(-c3ccn4nc(N)c(C(=O)NC5CC5)c4n3)cc(NS(C)(=O)=O)c2C1=O)C(F)(F)F

Test system: not listed separately
Assay: Metabolic stability in human hepatocytes assessed as intrinsic clearance per 10^6 cells at 0.5 uM by LC-MS/MS analysis
Format: ADME, cell-based, Hepatocyte
Settings: read-out: CLH

Structure (SMILES) | hepatocyte CLint at 0.5 µM
C[C@@H](C1CC1)N1Cc2cc(-c3ccn4nc(N)c(C(=O)NC5CC5)c4n3)cc(C3CC3)c2C1=O | 4.23 µL/min/1e6 cells
C[C@@H](C1CC1)N1Cc2cc(-c3ccn4nc(N)c(C(=O)NC5CC5)c4n3)cc(S(=O)(=O)C3CCC3)c2C1=O | 4.89 µL/min/1e6 cells
C[C@@H](C1CC1)N1Cc2cc(-c3ccn4nc(N)c(C(=O)NC5CC5)c4n3)cc(Cl)c2C1=O | < 1.2 µL/min/1e6 cells

More lines, now with the values ahead:

hepatocyte CLint at 0.5 µM | Structure (SMILES)
2.77 µL/min/1e6 cells | CNS(=O)(=O)c1cc(-c2ccn3nc(N)c(C(=O)N[C@H]4CC[C@](C)(O)CC4)c3n2)cc2c1C(=O)N([C@@H](C)C(F)(F)F)C2
< 1.2 µL/min/1e6 cells | C[C@H](N1Cc2cc(-c3ccn4nc(N)c(C(=O)NC5CC5)c4n3)cc(NS(C)(=O)=O)c2C1=O)C(F)(F)F

Test system: not listed separately
Assay: Metabolic stability in rat hepatocyte assessed as intrinsic clearance per 10^8 cells at 0.5 uM by LC-MS/MS analysis
Format: ADME, cell-based
Settings: hepatocytes

Structure (SMILES) | hepatocyte intrinsic clearance
C[C@@H](C1CC1)N1Cc2cc(-c3ccn4nc(N)c(C(=O)NC5CC5)c4n3)cc(C3CC3)c2C1=O | 2.97 µL/min
C[C@@H](C1CC1)N1Cc2cc(-c3ccn4nc(N)c(C(=O)NC5CC5)c4n3)cc(S(=O)(=O)C3CCC3)c2C1=O | 4.14 µL/min
C[C@@H](C1CC1)N1Cc2cc(-c3ccn4nc(N)c(C(=O)NC5CC5)c4n3)cc(Cl)c2C1=O | 2.89 µL/min

Other lines, results leading:

hepatocyte intrinsic clearance | Structure (SMILES)
< 1.2 µL/min | CNS(=O)(=O)c1cc(-c2ccn3nc(N)c(C(=O)N[C@H]4CC[C@](C)(O)CC4)c3n2)cc2c1C(=O)N([C@@H](C)C(F)(F)F)C2
< 1.2 µL/min | C[C@H](N1Cc2cc(-c3ccn4nc(N)c(C(=O)NC5CC5)c4n3)cc(NS(C)(=O)=O)c2C1=O)C(F)(F)F

Target: Phosphatidylinositol 4,5-bisphosphate 3-kinase catalytic subunit alpha isoform (Homo sapiens, UniProt P42336)
Assay: Inhibition of PI3Kalpha (unknown origin) using PIP2 as substrate preincubated for 1 hr followed by substrate addition and measured after 60 mins in presence of ATP by ADP-glo assay
Settings: not given

Sequence of Phosphatidylinositol 4,5-bisphosphate 3-kinase catalytic subunit alpha isoform (P42336 whole entry, canonical isoform): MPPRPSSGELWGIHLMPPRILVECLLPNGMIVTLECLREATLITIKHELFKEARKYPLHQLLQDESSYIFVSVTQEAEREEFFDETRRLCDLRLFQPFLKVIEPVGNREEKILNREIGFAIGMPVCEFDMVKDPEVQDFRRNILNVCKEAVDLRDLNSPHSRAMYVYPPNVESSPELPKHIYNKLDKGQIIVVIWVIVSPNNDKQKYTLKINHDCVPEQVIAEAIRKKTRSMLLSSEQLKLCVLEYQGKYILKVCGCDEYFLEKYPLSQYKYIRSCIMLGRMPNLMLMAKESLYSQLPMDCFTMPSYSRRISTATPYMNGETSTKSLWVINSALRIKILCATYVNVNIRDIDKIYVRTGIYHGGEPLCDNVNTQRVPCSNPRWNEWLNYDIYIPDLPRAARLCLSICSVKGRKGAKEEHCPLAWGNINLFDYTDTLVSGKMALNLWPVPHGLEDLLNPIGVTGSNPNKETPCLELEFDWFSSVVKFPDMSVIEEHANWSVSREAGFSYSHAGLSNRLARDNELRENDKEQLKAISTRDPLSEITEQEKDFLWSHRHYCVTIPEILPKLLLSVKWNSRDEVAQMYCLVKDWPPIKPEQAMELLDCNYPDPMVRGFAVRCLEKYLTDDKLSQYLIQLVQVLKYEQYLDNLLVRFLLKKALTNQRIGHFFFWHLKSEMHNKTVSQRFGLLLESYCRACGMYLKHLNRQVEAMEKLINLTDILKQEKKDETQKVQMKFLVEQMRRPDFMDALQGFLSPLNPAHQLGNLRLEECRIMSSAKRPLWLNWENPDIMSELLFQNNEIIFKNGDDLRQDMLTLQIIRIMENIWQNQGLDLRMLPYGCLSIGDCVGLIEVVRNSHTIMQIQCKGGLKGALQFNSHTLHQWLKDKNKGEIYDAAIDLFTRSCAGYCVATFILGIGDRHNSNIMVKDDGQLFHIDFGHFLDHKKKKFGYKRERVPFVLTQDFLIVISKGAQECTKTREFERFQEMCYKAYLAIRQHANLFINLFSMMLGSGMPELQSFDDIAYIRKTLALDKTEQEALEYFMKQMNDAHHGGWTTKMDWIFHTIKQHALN

Structure (SMILES) | IC50
C[C@@H](C1CC1)N1Cc2cc(-c3ccn4nc(N)c(C(=O)NC5CC5)c4n3)cc(C3CC3)c2C1=O | 572 nM
C[C@@H](C1CC1)N1Cc2cc(-c3ccn4nc(N)c(C(=O)NC5CC5)c4n3)cc(S(=O)(=O)C3CCC3)c2C1=O | 512 nM
C[C@@H](C1CC1)N1Cc2cc(-c3ccn4nc(N)c(C(=O)NC5CC5)c4n3)cc(Cl)c2C1=O | 686 nM

Now from value to molecule:

IC50 | Structure (SMILES)
118 nM | CCN1Cc2cc(-c3ccn4nc(N)c(C(=O)NC5CC5)c4n3)cc(C)c2C1=O
49 nM | CNS(=O)(=O)c1cc(-c2ccn3nc(N)c(C(=O)N[C@H]4CC[C@](C)(O)CC4)c3n2)cc2c1C(=O)N([C@@H](C)C(F)(F)F)C2
97 nM | C[C@H](N1Cc2cc(-c3ccn4nc(N)c(C(=O)NC5CC5)c4n3)cc(NS(C)(=O)=O)c2C1=O)C(F)(F)F

Target: T2, Phosphatidylinositol 4,5-bisphosphate 3-kinase catalytic subunit delta isoform (Homo sapiens, UniProt O00329)
T2 sequence (O00329 whole entry): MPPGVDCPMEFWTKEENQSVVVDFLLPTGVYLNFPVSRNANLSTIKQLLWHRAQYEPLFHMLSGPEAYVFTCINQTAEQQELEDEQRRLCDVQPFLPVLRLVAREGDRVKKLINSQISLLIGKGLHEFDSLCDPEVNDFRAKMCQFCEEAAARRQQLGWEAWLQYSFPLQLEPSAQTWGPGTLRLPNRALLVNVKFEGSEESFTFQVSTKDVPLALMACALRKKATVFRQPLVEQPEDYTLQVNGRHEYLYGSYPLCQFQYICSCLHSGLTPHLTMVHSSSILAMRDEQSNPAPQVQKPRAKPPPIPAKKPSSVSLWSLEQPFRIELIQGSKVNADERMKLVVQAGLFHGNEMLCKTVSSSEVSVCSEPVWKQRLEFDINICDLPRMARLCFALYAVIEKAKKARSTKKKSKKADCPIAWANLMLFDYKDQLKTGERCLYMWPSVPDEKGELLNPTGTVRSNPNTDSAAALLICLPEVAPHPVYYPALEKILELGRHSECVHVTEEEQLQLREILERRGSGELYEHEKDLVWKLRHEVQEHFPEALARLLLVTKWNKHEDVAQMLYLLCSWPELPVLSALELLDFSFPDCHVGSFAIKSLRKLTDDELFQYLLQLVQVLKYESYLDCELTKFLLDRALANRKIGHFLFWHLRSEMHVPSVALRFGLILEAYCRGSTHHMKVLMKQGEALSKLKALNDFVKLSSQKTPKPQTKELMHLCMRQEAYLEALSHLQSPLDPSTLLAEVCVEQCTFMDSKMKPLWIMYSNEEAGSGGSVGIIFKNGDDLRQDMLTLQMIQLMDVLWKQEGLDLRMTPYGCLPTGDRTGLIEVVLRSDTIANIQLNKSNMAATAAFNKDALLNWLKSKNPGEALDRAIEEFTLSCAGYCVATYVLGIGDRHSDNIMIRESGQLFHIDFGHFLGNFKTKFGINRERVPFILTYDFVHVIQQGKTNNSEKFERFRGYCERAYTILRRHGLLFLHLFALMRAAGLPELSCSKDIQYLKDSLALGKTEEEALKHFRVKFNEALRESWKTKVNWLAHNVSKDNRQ
Assay: Inhibition of PI3Kdelta (unknown origin) using PIP2 as substrate preincubated for 1 hr followed by substrate addition and measured after 60 mins in presence of ATP by ADP-glo assay
Settings: not given

Structure (SMILES) | IC50
C[C@@H](C1CC1)N1Cc2cc(-c3ccn4nc(N)c(C(=O)NC5CC5)c4n3)cc(C3CC3)c2C1=O | 829 nM
C[C@@H](C1CC1)N1Cc2cc(-c3ccn4nc(N)c(C(=O)NC5CC5)c4n3)cc(S(=O)(=O)C3CCC3)c2C1=O | 376 nM
C[C@@H](C1CC1)N1Cc2cc(-c3ccn4nc(N)c(C(=O)NC5CC5)c4n3)cc(Cl)c2C1=O | 1430 nM

More lines, now with the values ahead:

IC50 | Structure (SMILES)
179 nM | CCN1Cc2cc(-c3ccn4nc(N)c(C(=O)NC5CC5)c4n3)cc(C)c2C1=O
20 nM | CNS(=O)(=O)c1cc(-c2ccn3nc(N)c(C(=O)N[C@H]4CC[C@](C)(O)CC4)c3n2)cc2c1C(=O)N([C@@H](C)C(F)(F)F)C2
68 nM | C[C@H](N1Cc2cc(-c3ccn4nc(N)c(C(=O)NC5CC5)c4n3)cc(NS(C)(=O)=O)c2C1=O)C(F)(F)F

Species: Homo sapiens
Assay: Selectivity ratio of IC50 for inhibition of PI3Kalpha (unknown origin) to IC50 for inhibition of PI3Kgamma (unknown origin)
Settings: not given

Structure (SMILES) | Ratio IC50
C[C@@H](C1CC1)N1Cc2cc(-c3ccn4nc(N)c(C(=O)NC5CC5)c4n3)cc(C3CC3)c2C1=O | 122
C[C@@H](C1CC1)N1Cc2cc(-c3ccn4nc(N)c(C(=O)NC5CC5)c4n3)cc(Cl)c2C1=O | 282

The remaining lines, values ahead:

Ratio IC50 | Structure (SMILES)
21 | CCN1Cc2cc(-c3ccn4nc(N)c(C(=O)NC5CC5)c4n3)cc(C)c2C1=O
53 | CNS(=O)(=O)c1cc(-c2ccn3nc(N)c(C(=O)N[C@H]4CC[C@](C)(O)CC4)c3n2)cc2c1C(=O)N([C@@H](C)C(F)(F)F)C2

Species: Homo sapiens
Assay: Selectivity ratio of IC50 for inhibition of PI3Kdelta (unknown origin) to IC50 for inhibition of PI3Kgamma (unknown origin)
Settings: not given

Structure (SMILES) | Ratio IC50
C[C@@H](C1CC1)N1Cc2cc(-c3ccn4nc(N)c(C(=O)NC5CC5)c4n3)cc(C3CC3)c2C1=O | 178
C[C@@H](C1CC1)N1Cc2cc(-c3ccn4nc(N)c(C(=O)NC5CC5)c4n3)cc(S(=O)(=O)C3CCC3)c2C1=O | 124
C[C@@H](C1CC1)N1Cc2cc(-c3ccn4nc(N)c(C(=O)NC5CC5)c4n3)cc(Cl)c2C1=O | 589

Continued, values first:

Ratio IC50 | Structure (SMILES)
32 | CCN1Cc2cc(-c3ccn4nc(N)c(C(=O)NC5CC5)c4n3)cc(C)c2C1=O
22 | CNS(=O)(=O)c1cc(-c2ccn3nc(N)c(C(=O)N[C@H]4CC[C@](C)(O)CC4)c3n2)cc2c1C(=O)N([C@@H](C)C(F)(F)F)C2
89 | C[C@H](N1Cc2cc(-c3ccn4nc(N)c(C(=O)NC5CC5)c4n3)cc(NS(C)(=O)=O)c2C1=O)C(F)(F)F

Target: CYP3A4 (Homo sapiens, UniProt P08684)
Assay: in vitro
Settings: human liver microsomes, probe midazolam
Description: Time dependent inhibition of CYP3A4 in human liver microsomes at 10 uM using midazolam as substrate preincubated for 30 mins in presence of NADPH by LC/MS/MS analysis relative to control

Sequence of CYP3A4 (P08684 whole entry): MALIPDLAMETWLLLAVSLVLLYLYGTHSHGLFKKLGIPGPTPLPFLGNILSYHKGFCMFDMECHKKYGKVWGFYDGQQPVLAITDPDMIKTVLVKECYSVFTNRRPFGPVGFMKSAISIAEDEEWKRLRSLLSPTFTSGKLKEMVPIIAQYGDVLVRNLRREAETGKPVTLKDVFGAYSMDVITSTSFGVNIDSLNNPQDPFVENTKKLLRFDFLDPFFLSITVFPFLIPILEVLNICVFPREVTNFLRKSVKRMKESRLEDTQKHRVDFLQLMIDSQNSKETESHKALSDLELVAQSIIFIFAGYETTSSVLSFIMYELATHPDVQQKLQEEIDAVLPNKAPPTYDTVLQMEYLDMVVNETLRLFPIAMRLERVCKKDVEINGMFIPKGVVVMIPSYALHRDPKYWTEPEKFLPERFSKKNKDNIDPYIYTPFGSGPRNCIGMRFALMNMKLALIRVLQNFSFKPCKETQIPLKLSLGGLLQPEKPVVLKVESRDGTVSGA

inhibition at 30 min, 10 µM | Structure (SMILES)
38% | C[C@@H](C1CC1)N1Cc2cc(-c3ccn4nc(N)c(C(=O)NC5CC5)c4n3)cc(C3CC3)c2C1=O
14% | C[C@H](N1Cc2cc(-c3ccn4nc(N)c(C(=O)NC5CC5)c4n3)cc(NS(C)(=O)=O)c2C1=O)C(F)(F)F
35% | C[C@@H](C1CC1)N1Cc2cc(-c3ccn4nc(N)c(C(=O)NC5CC5)c4n3)cc(S(=O)(=O)C3CCC3)c2C1=O
36% | C[C@@H](C1CC1)N1Cc2cc(-c3ccn4nc(N)c(C(=O)NC5CC5)c4n3)cc(Cl)c2C1=O
